In patent publication US20250081967A1, “PESTICIDALLY ACTIVE HETEROCYCLIC DERIVATIVES WITH SULFOXIMINE CONTAINING SUBSTITUENTS” (SYNGENTA CROP PROTECTION AG, priority 2021, published 2025):

Assays:
Assay type in all cases: in vivo
[1] = system: Plutella xylostella; assay: Activity against Plutella xylostella (diamond back moth), artificial diet, L2 larvae; conditions: 120 h, application rate 200 ppm, 5 days after infestation, read-out: effect in at least one of the two categories (mortality or growth inhibition)
Experimental: Example B2: Activity Against Plutella xylostella (Diamond Back Moth)
(§1) 24-well microtiter plates with artificial diet were treated with aqueous test solutions prepared from 10′000 ppm DMSO stock solutions by pipetting. After drying, the plates were infested with L2 larvae (10 to 15 per well). The samples were assessed for mortality and growth inhibition in comparison to untreated samples 5 days after infestation.

[2] = system: Diabrotica balteata; assay: Activity against Diabrotica balteata (corn root worm), maize sprouts; conditions: for percent effect (mortality or growth inhibition) at 200 ppm: 96 h, application rate 200 ppm, L2 larvae, 4 days after infestation, read-out: effect in at least one of the two categories (mortality or growth inhibition)
Experimental: Example B3: Activity Against Diabrotica Balteata (Corn Root Worm)
as §1, with “Maize sprouts placed onto an agar layer in 24-well” for “24-well”, “plates” for “plates with artificial diet”, “spraying.” for “pipetting.”, “(6” for “(10”, “10” for “15”, “4” for “5”

[3] = system: Spodoptera littoralis; assay: Activity against Spodoptera littoralis (Egyptian cotton leaf worm), cotton leaf discs; conditions: foliar, 72 h, application rate 200 ppm, L1 larvae, 3 days after infestation, read-out: control (mortality, anti-feeding effect or growth inhibition)
Experimental: Example B1: Activity Against Spodoptera littoralis (Egyptian Cotton Leaf Worm)
Cotton leaf discs were placed onto agar in 24-well microtiter plates and sprayed with aqueous test solutions prepared from 10′000 ppm DMSO stock solutions. After drying the leaf discs were infested with five L1 larvae. The samples were assessed for mortality, anti-feeding effect, and growth inhibition in comparison to untreated samples 3 days after infestation. Control of Spodoptera littoralis by a test sample is given when at least one of the categories mortality, anti-feedant effect, and growth inhibition is higher than the untreated sample.

[4] = system: Myzus persicae; assay: Activity against Myzus persicae (green peach aphid), feeding/contact activity, sunflower leaf discs; conditions: Myzus persicae, foliar; for mortality at 200 ppm: 144 h, application rate 200 ppm, feeding/contact, 6 days after infestation
Experimental: Example B4: Activity Against Myzus persicae (Green Peach Aphid) Feeding/Contact Activity
Sunflower leaf discs were placed on agar in a 24-well microtiter plate and sprayed with aqueous test solutions prepared from 10′000 ppm DMSO stock solutions. After drying, the leaf discs were infested with an aphid population of mixed ages. The samples were assessed for mortality 6 days after infestation.

[5] = system: Myzus persicae; assay: Activity against Myzus persicae (green peach aphid), systemic activity, pea seedlings; conditions: for mortality at 24 ppm: Myzus persicae, 144 h, test rate 24 ppm, systemic, 6 days after placing seedlings in test solutions
Experimental: Example B5: Activity Against Myzus persicae (Green Peach Aphid) Systemic Activity
Roots of pea seedlings infested with an aphid population of mixed ages were placed directly in the aqueous test solutions prepared from 10′000 DMSO stock solutions. The samples were assessed for mortality 6 days after placing seedlings in test solutions.

[6] = system: Bemisia tabaci; assay: Activity against Bemisia tabaci (cotton white fly), cotton leaf discs; conditions: foliar; for mortality at 200 ppm: 144 h, application rate 200 ppm, adult white flies, 6 days after incubation
Experimental: Example B6: Activity Against Bemisia tabaci (Cotton White Fly)
Cotton leaf discs were placed on agar in 24-well microtiter plates and sprayed with aqueous test solutions prepared from 10′000 ppm DMSO stock solutions. After drying the leaf discs were infested with adult white flies. The samples were checked for mortality 6 days after incubation.

[7] = system: Euschistus heros; assay: Activity against Euschistus heros (neotropical brown stink bug), soybean leaf; conditions: 120 h, application rate 200 ppm, N-2 nymphs, 5 days after infestation, read-out: effect in at least one of the two categories (mortality or growth inhibition)
Experimental: Example B7: Activity Against Euschistus heros (Neotropical Brown Stink Bug)
Soybean leaf on agar in 24-well microtiter plates were sprayed with aqueous test solutions prepared from 10′000 ppm DMSO stock solutions. After drying the leaf were infested with N-2 nymphs. The samples were assessed for mortality and growth inhibition in comparison to untreated samples 5 days after infestation.

[8] = system: Plutella xylostella; assay: Activity against Plutella xylostella (diamond back moth), artificial diet, eggs; conditions: 192 h, application rate 200 ppm, 8 days after infestation, read-out: effect in at least one of the two categories (mortality or growth inhibition)
Experimental: Example B9: Activity Against Plutella xylostella (Diamond Back Moth)
as §1, with “drying, Plutella eggs were pipetted through a plastic stencil onto a gel blotting paper and” for “drying,”, “plate was closed” for “plates were infested”, “it.” for “L2 larvae (10 to 15 per well).”, “8” for “5”

Compound | percent effect (mortality or growth inhibition) at 200 ppm [1] [%] | percent effect (mortality or growth inhibition) at 200 ppm [2] [%] | percent control (mortality, anti-feedant effect or growth inhibition) at 200 ppm [3] [%] | mortality at 200 ppm [4] [%] | mortality at 24 ppm [5] [%] | mortality at 200 ppm [6] [%] | percent effect (mortality or growth inhibition) at 200 ppm [7] [%] | mortality at 50 ppm ([4]; Myzus persicae (contact), concentration 50 ppm) [%] | percent effect (mortality or growth inhibition) at 200 ppm [8] [%] | Mortality (%) ([5]; Myzus persicae (systemic), concentration 24 ppm) | Mortality (%) ([2]; concentration 3.125 ppm) | mortality at 50 ppm ([6]; concentration 50 ppm) [%] | Mortality (%) ([2]; concentration 50 ppm)
CCS(=N)(=O)c1cc(OC(C)(C)C#N)cnc1-c1cn2ccc(C(F)(F)F)cc2n1 (racemic) [Compound P3, 2-[[5-(ethylsulfonimidoyl)-6-[7-(trifluoromethyl)imidazo[1,2-a]pyridin-2-yl]-3-pyridyl]oxy]-2-methyl-propanenitrile] | ≥ 80 | ≥ 80 | ≥ 80 | ≥ 80 | – | – | – | – | – | – | – | – | –
CCS(=N)(=O)c1cc(C2(C#N)CC2)ccc1-c1nc2cc(C(F)(F)F)cnc2n1C (racemic) [Compound P6, 1-[3-(ethylsulfonimidoyl)-4-[3-methyl-6-(trifluoromethyl)imidazo[4,5-b]pyridin-2-yl]phenyl]cyclopropanecarbonitrile] | ≥ 80 | – | ≥ 80 | ≥ 80 | ≥ 80 | ≥ 80 | ≥ 80 | – | – | – | – | – | –
CCS(=N)(=O)c1cc(OC(C)(C)C#N)cnc1-c1cn2cnc(C(F)(F)F)cc2n1 (racemic) [Compound P11, 2-[[5-(ethylsulfonimidoyl)-6-[7-(trifluoromethyl)imidazo[1,2-c]pyrimidin-2-yl]-3-pyridyl]oxy]-2-methyl-propanenitrile] | ≥ 80 | ≥ 80 | ≥ 80 | ≥ 80 | ≥ 80 | ≥ 80 | – | – | – | – | – | – | –
CCS(=N)(=O)c1cc(C(C)(C)C#N)cnc1-c1nc2cc(C(F)(F)F)cnc2n1C (racemic) [Compound P12, 2-[5-(ethylsulfonimidoyl)-6-[3-methyl-6-(trifluoromethyl)imidazo[4,5-b]pyridin-2-yl]-3-pyridyl]-2-methyl-propanenitrile] | ≥ 80 | ≥ 80 | ≥ 80 | ≥ 80 | ≥ 80 | ≥ 80 | – | – | – | – | – | – | –
CCS(=N)(=O)c1cc(OC(C)(C)C#N)cnc1-c1nc2cc(C(F)(F)F)nnc2n1C (racemic) [Compound P15, 2-[[5-(ethylsulfonimidoyl)-6-[7-methyl-3-(trifluoromethyl)imidazo[4,5-c]pyridazin-6-yl]-3-pyridyl]oxy]-2-methyl-propanenitrile] | ≥ 80 | ≥ 80 | – | ≥ 80 | ≥ 80 | ≥ 80 | ≥ 80 | – | – | – | – | – | –
CCS(=N)(=O)c1cc(C2(C#N)CC2)cnc1-c1nc2cc(C(F)(F)F)cnc2n1C (racemic) [Compound P16, 1-[5-(ethylsulfonimidoyl)-6-[3-methyl-6-(trifluoromethyl)imidazo[4,5-b]pyridin-2-yl]-3-pyridyl]cyclopropanecarbonitrile] | ≥ 80 | – | – | ≥ 80 | ≥ 80 | ≥ 80 | – | – | – | – | – | – | –
CCS(=N)(=O)c1cc(OC(C)(C)C#N)c(C)nc1-c1nc2cc(C(F)(F)F)ncc2n1C (racemic) [Compound P17, 2-[[5-(ethylsulfonimidoyl)-2-methyl-6-[3-methyl-6-(trifluoromethyl)imidazo[4,5-c]pyridin-2-yl]-3-pyridyl]oxy]-2-methyl-propanenitrile] | ≥ 80 | – | ≥ 80 | ≥ 80 | ≥ 80 | ≥ 80 | – | – | – | – | – | – | –
CCS(=N)(=O)c1cc(OC(C)(C)C#N)cnc1-c1nc2cc(C(F)(F)F)n(C3CC3)c(=O)c2n1C (single isomer, unassigned) [Compound P1-A, 2-[[6-[5-cyclopropyl-3-methyl-4-oxo-6-(trifluoromethyl)imidazo[4,5-c]pyridin-2-yl]-5-(ethylsulfonimidoyl)-3-pyridyl]oxy]-2-methyl-propanenitrile] | – | ≥ 80 | ≥ 80 | ≥ 80 | ≥ 80 | ≥ 80 | ≥ 80 | 100 | – | – | – | – | –
CCS(=N)(=O)c1cc(OC(C)(C)C#N)c(C)nc1-c1nc2cc(C(F)(F)F)cnc2n1C (single isomer, unassigned) [Compound P5-B, 2-[[5-(ethylsulfonimidoyl)-2-methyl-6-[3-methyl-6-(trifluoromethyl)imidazo[4,5-b]pyridin-2-yl]-3-pyridyl]oxy]-2-methyl-propanenitrile] | – | – | – | – | – | – | ≥ 80 | – | ≥ 80 | 100 | 100 | – | –
CCS(=N)(=O)c1cc(OC(C)(C)C#N)cnc1-c1cn2cnc(SC(F)(F)F)cc2n1 (single isomer, unassigned) [Compound P7-A, 2-[[5-(ethylsulfonimidoyl)-6-[7-(trifluoromethylsulfanyl)imidazo[1,2-c]pyrimidin-2-yl]-3-pyridyl]oxy]-2-methyl-propanenitrile] | – | ≥ 80 | ≥ 80 | ≥ 80 | ≥ 80 | ≥ 80 | ≥ 80 | – | – | – | – | 80 | –
CCS(=N)(=O)c1cc(C2(C#N)CC2)cnc1-c1nc2cc(C(F)(F)F)n(OC)c(=O)c2n1C (single isomer, unassigned) [Compound P8-A, 1-[5-(ethylsulfonimidoyl)-6-[5-methoxy-3-methyl-4-oxo-6-(trifluoromethyl)imidazo[4,5-c]pyridin-2-yl]-3-pyridyl]cyclopropanecarbonitrile] | – | ≥ 80 | ≥ 80 | ≥ 80 | ≥ 80 | ≥ 80 | ≥ 80 | – | – | – | – | – | –
CCn1c(C(F)(F)F)cc2nc(-c3ncc(C4(C#N)CC4)cc3S(=N)(=O)CC)n(C)c2c1=O (single isomer, unassigned) [Compound P14-A, 1-[6-[5-ethyl-3-methyl-4-oxo-6-(trifluoromethyl)imidazo[4,5-c]pyridin-2-yl]-5-(ethylsulfonimidoyl)-3-pyridyl]cyclopropanecarbonitrile] | – | ≥ 80 | ≥ 80 | ≥ 80 | ≥ 80 | ≥ 80 | ≥ 80 | – | ≥ 80 | – | – | – | 80
CCS(=N)(=O)c1cc(OC(C)(C)C#N)c(C)nc1-c1nc2cc(C(F)(F)F)ncc2n1C (single isomer, unassigned) [Compound P17-B, 2-[[5-(ethylsulfonimidoyl)-2-methyl-6-[3-methyl-6-(trifluoromethyl)imidazo[4,5-c]pyridin-2-yl]-3-pyridyl]oxy]-2-methyl-propanenitrile] | – | – | ≥ 80 | – | – | – | ≥ 80 | – | – | – | – | – | –
